Experiments:
[1] = biological target: METTL3/METTL14 complex (Homo sapiens); test: Competive inhibition of full length human METTL3/METTL14 expressed in Sf9 cells using single strand RNA 5'-AAGAACCGGACUAAGCU-3' and SAM as substrate incubated for 40 mins by HTRF assay
[2] = biological target: N6-adenosine-methyltransferase catalytic/non-catalytic subunit (Homo sapiens, UniProt Q9HCE5+Q86U44); test: Inhibition of full-length His-tagged METTL3/full length FLAG-tagged METTL14 (unknown origin) expressed in baculovirus expression system using synthetic RNA 5'P-uacacucgaucuggacuaaagcugcuc-3' and SAM as substrate preincubated for 10 mins followed by substrate addition and measured after 60 mins by RF/MS analysis
N6-adenosine-methyltransferase catalytic/non-catalytic subunit, sequence (Q9HCE5 whole entry): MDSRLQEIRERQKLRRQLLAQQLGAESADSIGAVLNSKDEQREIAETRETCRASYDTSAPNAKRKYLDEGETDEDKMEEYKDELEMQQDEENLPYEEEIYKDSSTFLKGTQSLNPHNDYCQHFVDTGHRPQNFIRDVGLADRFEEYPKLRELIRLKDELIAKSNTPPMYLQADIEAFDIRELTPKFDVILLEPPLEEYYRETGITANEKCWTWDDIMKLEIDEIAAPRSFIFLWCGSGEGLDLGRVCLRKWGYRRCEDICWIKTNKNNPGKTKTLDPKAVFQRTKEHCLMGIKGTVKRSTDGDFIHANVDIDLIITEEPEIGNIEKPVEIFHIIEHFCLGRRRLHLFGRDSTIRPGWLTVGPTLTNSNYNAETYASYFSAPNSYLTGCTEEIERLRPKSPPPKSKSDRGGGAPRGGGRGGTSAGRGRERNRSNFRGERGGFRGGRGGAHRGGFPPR
N6-adenosine-methyltransferase catalytic/non-catalytic subunit, sequence (Q86U44 whole entry): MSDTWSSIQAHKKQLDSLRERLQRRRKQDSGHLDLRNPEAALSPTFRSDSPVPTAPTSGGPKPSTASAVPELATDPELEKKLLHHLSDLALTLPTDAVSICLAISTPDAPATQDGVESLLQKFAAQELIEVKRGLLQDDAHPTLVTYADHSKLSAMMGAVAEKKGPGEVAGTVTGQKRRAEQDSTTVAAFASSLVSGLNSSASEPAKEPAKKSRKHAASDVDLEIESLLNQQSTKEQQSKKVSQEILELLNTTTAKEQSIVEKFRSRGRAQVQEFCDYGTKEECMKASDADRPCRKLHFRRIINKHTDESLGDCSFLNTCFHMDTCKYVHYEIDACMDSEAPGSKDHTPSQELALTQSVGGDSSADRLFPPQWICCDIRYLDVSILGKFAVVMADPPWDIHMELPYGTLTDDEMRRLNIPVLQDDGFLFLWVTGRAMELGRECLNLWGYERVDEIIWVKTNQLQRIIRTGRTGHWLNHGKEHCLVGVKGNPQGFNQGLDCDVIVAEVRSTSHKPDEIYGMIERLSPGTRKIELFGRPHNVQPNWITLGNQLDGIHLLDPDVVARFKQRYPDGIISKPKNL

METTL3/METTL14 complex = test: Inhibition of METTL3/METTL14 (unknown origin)
[3] = biological target: METTL3/METTL14 (Homo sapiens); test: Inhibition of full-length His-tagged METTL3/full length FLAG-tagged METTL14 (unknown origin) expressed in baculovirus expression system using synthetic RNA 5'P-uacacucgaucuggacuaaagcugcuc-3' and SAM as substrate preincubated for 10 mins followed by substrate addition and measured after 60 mins by RF/MS analysis

| IC50 [2] [nM] | IC50 [3] [nM] | SMILES | also measured |
| --- | --- | --- | --- |
| 6.2 |  | Nc1ncnc2c1ccn2[C@@H]1C[C@H](c2ccc3cc(CN4CCC5(CCC5)C4)[nH]c3c2)[C@@H](O)[C@H]1O [(1R,2S,3R,5R)-3-{4-amino-7H-pyrrolo[2,3-d]pyrimidin-7-yl}-5-[2-({6-azaspiro[3.4]octan-] |  |
|  | 6.1 | O=C(NCc1cn2cc(CNCC34CC(F)(C3)C4)ccc2n1)c1cc(=O)n2ccccc2n1 |  |
| 6.1 |  | Nc1ncnc2c1c(Br)cn2[C@@H]1C[C@H](c2ccc3cc(CN4CCC5(CCC5)C4)[nH]c3c2)[C@@H](O)[C@H]1O [(1R,2S,3R,5R)-3-{4-amino-5-bromo-7H-pyrrolo[2,3-d]pyrimidin-7-yl}-5-[2-({6-azaspiro[3.4]octan-] |  |
| 6.1 |  | Nc1ncnc2c1c(Cl)cn2[C@@H]1C[C@H](c2ccc3cc(CNCC45CC(F)(C4)C5)[nH]c3c2)[C@@H](O)[C@H]1O [(1R,2S,3R,5R)-3-{4-amino-5-chloro-7H-pyrrolo[2,3-d]pyrimidin-7-yl}-5-(2-{[({3-fluorobicyclo[1.1.1]pentan-1-] |  |
|  | 6.1 | COc1cc(-c2cn(Cc3cn4cc(CNCC56CC(F)(C5)C6)ccc4n3)nn2)c2cncn2c1 [({3-fluorobicyclo[1.1.1]pentan-1-yl}methyl)({2-[(4-{6-methoxyimidazo[1,5-a]pyridin-8-yl}-1H-1,2,3-triazol-1-yl)methyl]imidazo [1,2-a]pyridin-6-yl}methyl)amine] |  |

Further lines, the compound ahead of its results:

| SMILES | IC50 [2] [nM] | IC50 [3] [nM] | also measured |
| --- | --- | --- | --- |
| CNC1CCC(O)(Cn2cnc3c(N)ncnc32)C(O)C1 (stereo not drawn) |  |  | IC50 [1]: 98000 nM |
| CC1=NN(c2ccc(C)c(C)c2)C(=O)/C1=N\Nc1cccc(-c2cccc(C(=O)O)c2)c1 |  |  | IC50 (METTL3/METTL14 complex): 15300 nM |
| CN1CCC(NC(=O)[C@H]2O[C@@H](n3cnc4c(N)ncnc43)[C@H](O)[C@@H]2O)CC1 |  |  | IC50 [1]: 65000 nM |
| COc1cc(-c2cn(Cc3cn4cc(CNCC5CCC5)ccc4n3)nn2)c2cncn2c1 [US20230391770, Example 22] |  | 6.1 |  |
| COc1ccc2[nH]ncc2c1-c1cn(Cc2cn3cc(CNCC4CCC4)ccc3n2)nn1 | 6.1 |  |  |
| CC1(C)CCN(Cc2ccc3nc(Cn4cc(-c5cc(Br)cc6[nH]ncc56)nn4)cn3c2)CC1 | 7.9 |  |  |
| COc1cc(-c2cn(Cc3cn4cc(CNCC56CC(C5)C6)ccc4n3)nn2)c2cncn2c1 [({bicyclo[1.1.1]pentan-1-yl}methyl)({2-[(4-{6-methoxyimidazo[1,5-a]pyridin-8-yl}-1H-1,2,3-triazol-1-yl)methyl]imidazo [1,2-a]pyridin-6-yl}methyl)amine] |  | 6.1 |  |
| COc1cc(-c2cn(Cc3cn4cc(CNCC5(OC)CCC5)ccc4n3)nn2)c2cn[nH]c2c1 | 6.1 |  |  |

From BindingDB's records for doi:10.1021/acs.jmedchem.2c01601 (Sapienza University of Rome, 2023)
